In patent publication US20190307123A1, “KIT OF ATTRACTANTS FOR ATTRACTING THE COFFEE BERRY BORER” (INSTITUT NATIONAL DE LA RECHERCHE AGRONOMIQUE, priority 2016, published 2019):
Entries after “also recorded” stand apart in the source; their conditions may differ.

Key:
[1] = system: coffee berry borer Hypothenemus hampei; experiment: Field trapping trials in Costa Rica (Brocap traps in arabica coffee plantation); format: in vivo; settings: Costa Rica field tests; result in words
Description: The trials carried out above were supplemented in 2017 in Costa Rica, in a context of larger coffee berry borer populations. The trapping trials were carried out between Feb. 21 and Apr. 27, 2017, in the commercial arabica coffee plantations of the CATIE (Centro Agronómico Tropical de Investigación y Enseñanza) [The Tropical Agricultural Research and Higher Education Center] in Turrialba, Costa Rica. […] The Coffea arabica var. caturra plantations, located at approximately 600 meters of altitude, were planted in 2010 in combination with Erythrina poeppigiana as shade trees. The rows are oriented along the contour lines with a spacing of 80 cm between the plants and 2 meters between the rows (6300 plants/ha). All of the plots benefit from considerable annual maintenance: pluriannual weeding or chemical weed-killing between the rows, chemical fertilization during fruit formation, fungicide and optionally insecticide treatments in the event of coffee berry borer infestation. The yields therefrom are medium, about 1000 kg/ha/year of green bean coffee. Brocap® traps were placed directly in the coffee trees, suspended from the branches at a height of approximately 1 meter and with a spacing between the traps of approximately 20 meters. […] The number of coffee berry borers trapped was recorded daily. […]

[2] = system: coffee berry borer Hypothenemus hampei; experiment: Field trapping trials in Brazil (Unitrap traps in arabica coffee plantation); format: in vivo; settings: Brazil field tests, result in words
Description: The trapping trials were carried out between Jan. 8 and Mar. 31, 2016, during the fruit maturation phase, in an arabica coffee plantation conducted under biodynamic conditions in the municipality of […] Boa Vista, in the State of São Paulo in Brazil, at an altitude of 800 m. For each test, three plots received trials, each representing a random complete block. The Coffea arabica var. tupi plantations were set up at the beginning of the 2000s in combination with shade trees (Acacia mangium, Acacia auriculiformis, […] sepium, Leucaena leucocephala). The rows are oriented along the contour lines with a variable spacing according to the plots (0.6 to 0.75×3 to 3.6 meters), and the shade trees are planted at regular intervals in the rows of coffee trees. All of the plots benefit from considerable annual maintenance: regular cutting between the rows, organic fertilization and weeding during fruit formation, foliar fertilization during bean swelling and maturation. […] The traps (Pherobank Unitrap wing model) were placed directly in the coffee trees, suspended from the branches at a height of 1.20 meters or as high as possible when the plants were smaller. The spacing between the traps is approximately 20 meters. The products used were supplied by Sigma-Aldrich. They are: The products were placed in 2 ml glass vials, in which the opening of the septum allows free diffusion by evaporation. A first diffuser contained 0.5 ml of ethanol and 0.5 ml of methanol. A second diffuser contained, where appropriate, the terpenoids diluted in paraffin (0.5 ml of (-)-limonene or 0.5 ml of (+)-limonene, 0.5 ml of paraffin and where appropriate 0.1 ml of (-)-α-pinene). The number of coffee berry borers trapped was recorded daily, and the modes tested were modified each week which represents a test. Each recording in each block represents a repetition. Between each test, the traps were washed with a 2% TFD4 solution and the diffusers were changed.

| SMILES | Effect on number of borers trapped when combined with the ethanol/methanol mixture, compared with the ethanol/methanol mixture alone [1] | Effect on number of borers trapped when combined with the ethanol/methanol mixture, compared with the alcohols alone [2] | Effect on number of borers trapped when combined with the ethanol/methanol mixture, compared with the alcohols alone ([2]; listed as (+) enantiomer of limonene) |
| --- | --- | --- | --- |
| CCCCC(CC)CO (racemic) [2-ethyl-1-hexanol, 2-Ethyl-1-hexanol] | clearly increased; also recorded: makes it possible to increase the trappings | – | – |
| C=C(C)[C@H]1CC=C(C)CC1 [(+)-limonene, (R)-(+)-Limonene, reference compound] | – | did not make it possible to improve the captures | does not increase the number of borers trapped |
| C=C(C)[C@@H]1CC=C(C)CC1 [(−)-limonene, (S)-(−)-Limonene] | clearly increased | improves the attractiveness; also recorded: significantly increased; also recorded: clearly increased | – |
| C=CC(C)(O)CCC=C(C)C (stereo not drawn) [linalool, reference compound] | – | virtually disappears | – |
